Assays:
Assay in all cases: Dundee kinase panel
Assay type in all cases: biochemical
Conditions in all cases: for remaining activity at 1 µM: read-out: residual activity
DYRK3 = molecular target: T1, DYRK3 (Homo sapiens, UniProt O43781)
T1 construct: lines 1-140) and Reaction Biology
T1 sequence (O43781 1-588): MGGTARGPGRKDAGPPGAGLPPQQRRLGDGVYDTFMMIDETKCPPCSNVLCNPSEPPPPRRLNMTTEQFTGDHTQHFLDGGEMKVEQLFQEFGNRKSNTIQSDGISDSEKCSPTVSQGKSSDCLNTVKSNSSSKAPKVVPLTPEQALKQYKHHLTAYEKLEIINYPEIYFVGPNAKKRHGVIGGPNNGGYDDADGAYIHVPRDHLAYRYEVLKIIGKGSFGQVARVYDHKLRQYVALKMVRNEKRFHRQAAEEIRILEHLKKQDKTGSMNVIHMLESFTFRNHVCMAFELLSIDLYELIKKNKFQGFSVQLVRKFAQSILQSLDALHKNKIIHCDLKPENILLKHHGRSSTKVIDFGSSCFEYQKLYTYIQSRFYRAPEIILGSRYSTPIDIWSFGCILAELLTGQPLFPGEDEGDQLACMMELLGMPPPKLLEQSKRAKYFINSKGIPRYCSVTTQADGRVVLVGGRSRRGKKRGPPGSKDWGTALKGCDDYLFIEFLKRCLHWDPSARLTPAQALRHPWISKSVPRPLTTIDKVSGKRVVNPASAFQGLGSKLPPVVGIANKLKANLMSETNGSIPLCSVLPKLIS
Experimental: (§1) Compounds were screened at 1 μM. For key hits, pIC50 values were then determined by HTRF as above. […] Stability in mouse and human liver microsomes was determined by Cyprotex.

EPH-B4 = molecular target: T2, EPH-B4 (Homo sapiens, UniProt P54760)
T2 construct: lines 1-140) and Reaction Biology
T2 sequence (P54760 16-987): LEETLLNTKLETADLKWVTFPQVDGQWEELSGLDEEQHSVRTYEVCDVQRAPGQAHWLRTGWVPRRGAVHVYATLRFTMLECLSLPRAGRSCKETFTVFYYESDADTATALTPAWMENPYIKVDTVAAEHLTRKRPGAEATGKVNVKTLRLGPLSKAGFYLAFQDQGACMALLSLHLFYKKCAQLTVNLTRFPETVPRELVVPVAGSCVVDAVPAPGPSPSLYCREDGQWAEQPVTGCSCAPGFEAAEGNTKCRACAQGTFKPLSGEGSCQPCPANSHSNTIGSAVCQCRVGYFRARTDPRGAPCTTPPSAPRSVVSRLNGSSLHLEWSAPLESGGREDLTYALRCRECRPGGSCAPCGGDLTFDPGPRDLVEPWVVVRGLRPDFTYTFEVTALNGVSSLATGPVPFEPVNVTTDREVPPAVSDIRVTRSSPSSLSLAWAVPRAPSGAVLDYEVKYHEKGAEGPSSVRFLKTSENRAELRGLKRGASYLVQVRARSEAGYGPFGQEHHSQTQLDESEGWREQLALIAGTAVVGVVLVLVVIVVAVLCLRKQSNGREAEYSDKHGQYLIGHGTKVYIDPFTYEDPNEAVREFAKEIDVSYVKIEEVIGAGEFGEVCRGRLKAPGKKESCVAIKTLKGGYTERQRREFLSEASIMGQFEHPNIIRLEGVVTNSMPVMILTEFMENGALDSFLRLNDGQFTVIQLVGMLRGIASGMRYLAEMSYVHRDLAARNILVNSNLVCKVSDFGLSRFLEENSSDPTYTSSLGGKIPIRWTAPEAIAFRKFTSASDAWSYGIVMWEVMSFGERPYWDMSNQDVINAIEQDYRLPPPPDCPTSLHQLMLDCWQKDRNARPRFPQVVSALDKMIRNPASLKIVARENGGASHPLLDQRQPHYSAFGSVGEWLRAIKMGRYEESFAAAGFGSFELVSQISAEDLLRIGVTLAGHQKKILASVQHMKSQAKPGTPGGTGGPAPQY
Experimental: as §1

CDK2-Cyclin A = molecular target: T3, CDK2-Cyclin A (Homo sapiens, UniProt P24941)
T3 construct: lines 1-140) and Reaction Biology
Experimental: as §1

CAMK1 = molecular target: T4, CAMK1 (Homo sapiens, UniProt Q14012)
T4 construct: lines 1-140) and Reaction Biology
Experimental: as §1

TTK = molecular target: T5, TTK (Homo sapiens, UniProt P33981)
T5 construct: lines 1-140) and Reaction Biology
T5 sequence (P33981 1-857): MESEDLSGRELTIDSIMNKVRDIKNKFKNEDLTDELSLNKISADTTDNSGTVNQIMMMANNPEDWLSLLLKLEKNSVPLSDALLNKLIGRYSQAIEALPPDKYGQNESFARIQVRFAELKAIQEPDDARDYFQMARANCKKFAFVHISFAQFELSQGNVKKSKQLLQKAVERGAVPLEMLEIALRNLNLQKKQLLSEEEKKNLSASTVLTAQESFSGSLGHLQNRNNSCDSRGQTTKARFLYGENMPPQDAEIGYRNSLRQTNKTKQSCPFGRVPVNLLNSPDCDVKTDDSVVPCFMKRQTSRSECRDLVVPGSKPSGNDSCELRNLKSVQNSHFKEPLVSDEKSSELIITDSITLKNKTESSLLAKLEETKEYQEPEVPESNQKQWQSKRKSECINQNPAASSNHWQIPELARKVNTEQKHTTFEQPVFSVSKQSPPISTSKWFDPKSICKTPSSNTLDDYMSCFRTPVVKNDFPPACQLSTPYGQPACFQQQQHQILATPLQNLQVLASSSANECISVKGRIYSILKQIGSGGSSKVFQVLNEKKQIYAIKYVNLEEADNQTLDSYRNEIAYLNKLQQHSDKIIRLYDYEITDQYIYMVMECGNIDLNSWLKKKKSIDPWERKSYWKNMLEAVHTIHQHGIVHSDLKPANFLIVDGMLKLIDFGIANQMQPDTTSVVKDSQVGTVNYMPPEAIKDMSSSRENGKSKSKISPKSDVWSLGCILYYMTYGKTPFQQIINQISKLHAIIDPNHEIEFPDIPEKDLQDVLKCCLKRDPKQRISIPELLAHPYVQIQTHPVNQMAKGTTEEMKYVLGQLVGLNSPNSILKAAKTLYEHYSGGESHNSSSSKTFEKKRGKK
Experimental: as §1

T4 sequence (Q14012 whole entry): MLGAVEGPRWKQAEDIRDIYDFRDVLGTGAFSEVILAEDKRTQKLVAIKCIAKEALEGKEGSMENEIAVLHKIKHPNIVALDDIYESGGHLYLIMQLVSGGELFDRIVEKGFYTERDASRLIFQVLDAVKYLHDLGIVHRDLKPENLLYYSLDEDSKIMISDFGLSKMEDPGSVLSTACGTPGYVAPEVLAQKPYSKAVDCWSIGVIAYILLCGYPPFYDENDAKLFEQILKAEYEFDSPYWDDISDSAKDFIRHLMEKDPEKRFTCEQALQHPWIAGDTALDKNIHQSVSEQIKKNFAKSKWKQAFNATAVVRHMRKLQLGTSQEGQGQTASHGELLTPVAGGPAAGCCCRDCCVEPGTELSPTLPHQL

## COCCOc1ccc(-c2cn(-c3ccccc3)c3nc[nH]c(=O)c23)cc1 [DMX-5804, 5-[4-(2-methoxy-ethoxy)-phenyl]-7-phenyl-3,7-dihydro-pyrrolo[2,3-d]pyrimidin-4-one]
DYRK3
  remaining activity at 1 µM: 128%
EPH-B4
  remaining activity at 1 µM: 100%
CDK2-Cyclin A
  remaining activity at 1 µM: 104%
CAMK1
  remaining activity at 1 µM: 114%
TTK
  remaining activity at 1 µM: 105%

## Oc1ncnc2c1c(-c1ccccc1)cn2-c1ccccc1 [F1386-0303, 5,7-diphenyl-7H-pyrrolo[2,3-d]pyrimidin-4-ol]
DYRK3
  remaining activity at 1 µM: 101%
EPH-B4
  remaining activity at 1 µM: 102%
CDK2-Cyclin A
  remaining activity at 1 µM: 84%
CAMK1
  remaining activity at 1 µM: 97%
TTK
  remaining activity at 1 µM: 97%

## Nc1ncc(C(=O)NC2CN(C(=O)C3CC3)C2)c2ccc(-c3cccc(F)c3)nc12 [GNE-495]
DYRK3; 1 μM
  residual activity: 83%
EPH-B4; 1 μM
  residual activity: 106%
CDK2-Cyclin A; 1 μM
  residual activity: 55%
CAMK1; 1 μM
  residual activity: 93%
TTK; 1 μM
  residual activity: 87%

## O=C1Nc2ccc(I)cc2/C1=C/c1cc(Br)c(O)c(Br)c1 [GW5074]
DYRK3
  remaining activity at 1 µM: 14%
EPH-B4
  remaining activity at 1 µM: 94%
CDK2-Cyclin A
  remaining activity at 1 µM: 111%
CAMK1
  remaining activity at 1 µM: 70%
TTK
  remaining activity at 1 µM: 88%

## O=C1Cc2c([nH]c3ccc(Br)cc23)-c2ccccc2N1 [Kenpaullone]
DYRK3
  remaining activity at 1 µM: 72%
EPH-B4
  remaining activity at 1 µM: 85%
CDK2-Cyclin A
  remaining activity at 1 µM: 93%
CAMK1
  remaining activity at 1 µM: 103%
TTK
  remaining activity at 1 µM: 97%
